Data: patent EP4667458A1 (Kanaph Therapeutics Inc., priority 2023, dated 2024)

The compounds below were run against T1, SOS1 (Homo sapiens, UniProt Q07889) (assay: SOS-catalyzed nucleotide exchange assay (HTRF, SOS1-mediated GTP loading of KRAS G12D)). Conditions: GST-KRAS G12D, HIS-SOS1cat, EDA-GTP-DY-647P1; compound 128 pM to 10 µM; read-out: SOS-catalyzed nucleotide exchange assay (IC50 range, Grade).
T1 construct: adding equal amounts of HIS-SOS1cat (160 nM; Cytoskeleton, US); His; purchased Cytoskeleton, US
T1 sequence (Q07889 564-1049 limits assumed): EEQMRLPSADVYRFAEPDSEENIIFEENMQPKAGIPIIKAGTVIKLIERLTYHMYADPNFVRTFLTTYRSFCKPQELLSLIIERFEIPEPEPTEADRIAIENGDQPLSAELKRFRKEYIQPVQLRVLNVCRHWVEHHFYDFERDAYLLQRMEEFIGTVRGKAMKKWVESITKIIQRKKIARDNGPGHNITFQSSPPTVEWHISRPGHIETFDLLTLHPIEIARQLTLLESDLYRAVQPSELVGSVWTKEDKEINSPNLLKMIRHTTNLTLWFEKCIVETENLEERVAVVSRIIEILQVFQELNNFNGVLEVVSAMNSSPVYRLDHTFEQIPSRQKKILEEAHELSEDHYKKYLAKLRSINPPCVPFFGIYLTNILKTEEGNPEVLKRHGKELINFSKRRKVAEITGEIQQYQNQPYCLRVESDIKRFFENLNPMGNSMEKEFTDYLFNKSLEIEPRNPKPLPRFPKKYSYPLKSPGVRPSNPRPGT
Format: biochemical
Method in brief: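 SOS1cat (HIS-tagged) preincubated 10 min at room temperature with compound (128 pM-10 µM), then GST-KRAS G12D with anti-GST terbium added; GTP loading tracked as HTRF with a DY-647P1 GTP analogue after 30 min, buffer HEPES pH 7.4. GEF-free wells for normalization; IC50 derived.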

SMILES | IC50
C[C@@H](NC(=O)c1ccc(=O)n(-c2cccc3[nH]ccc23)n1)c1cc(N)cc(C(F)(F)F)c1 [Example 160, N-[(1R)-1-[3-amino-5-(trifluoromethyl)phenyl]ethyl]-1-(1H-indol-4-yl)-6-oxo-pyridazine-3-carboxamide] | 1000 to 10000 nM
C[C@@H](NC(=O)c1ccc(=O)n(-c2ccccc2OC(F)F)n1)c1cccc(C(F)(F)CO)c1F [Example 143, N-[(1R)-1-[3-(1,1-difluoro-2-hydroxy-ethyl)-2-fluoro-phenyl]ethyl]-1-[2-(difluoromethoxy)phenyl]-6-oxo-pyridazine-3-carboxamide] | < 1000 nM
COc1ccc(-n2nc(C(=O)N[C@H](C)c3cc(N)cc(C(F)(F)F)c3)ccc2=O)c(OC)c1 [Example 153, N-[(1R)-1-[3-amino-5-(trifluoromethyl)phenyl]ethyl]-1-(2,4-dimethoxyphenyl)-6-oxo-pyridazine-3-carboxamide] | < 1000 nM
C[C@@H](NC(=O)c1ccc(=O)n(-c2cncc(-c3cnnn3C)c2)n1)c1cccc(C(F)F)c1F [Example B02, N-[(1R)-1-[3-(difluoromethyl)-2-fluoro-phenyl]ethyl]-1-[5-(3-methyltriazol-4-yl)-3-pyridyl]-6-oxo-pyridazine-3-carboxamide] | < 1000 nM
C[C@@H](NC(=O)c1ccc(=O)n(-c2ccccc2NS(C)(=O)=O)n1)c1cc(N)cc(C(F)(F)F)c1 [Example 33, N-[(1R)-1-[3-amino-5-(trifluoromethyl)phenyl]ethyl]-1-[2-(methanesulfonamido)phenyl]-6-oxo-pyridazine-3-carboxamide] | < 1000 nM
C[C@@H](NC(=O)c1nn(-c2ccccc2)c(=O)cc1C1CC1)c1cc(N)cc(C(F)(F)F)c1 [Example 55, (R)-N-(1-(3-amino-5-(trifluoromethyl)phenyl)ethyl)-4-cyclopropyl-6-oxo-1-phenyl-1,6-dihydropyridazine-3-carboxamide] | < 1000 nM
C[C@@H](NC(=O)c1ccc(=O)n(-c2ccccc2Cl)n1)c1cc(N)cc(C(F)(F)F)c1 [Example 32, (R)-N-(1-(3-amino-5-(trifluoromethyl)phenyl)ethyl)-1-(2-chlorophenyl)-6-oxo-1,6-dihydropyridazine-3-carboxamide] | < 1000 nM
C[C@@H](NC(=O)c1ccc(=O)n(C2CCS(=O)(=O)CC2)n1)c1cc(N)cc(C(F)(F)F)c1 [Example 117, N-[(1R)-1-[3-amino-5-(trifluoromethyl)phenyl]ethyl]-1-(1,1-dioxo-1λ^6-thian-4-yl)-6-oxo-1,6-dihydropyridazine-3-carboxamide] | 1000 to 10000 nM
C[C@@H](NC(=O)c1ccc(=O)n(-c2cccc(NC(=O)C3CC3)c2)c1)c1cc(N)cc(C(F)(F)F)c1 [Example 130, N-[(1R)-1-[3-amino-5-(trifluoromethyl)phenyl]ethyl]-1-(3-cyclopropaneamidophenyl)-6-oxo-1,6-dihydropyridine-3-carboxamide] | < 1000 nM
C[C@@H](NC(=O)c1ccc(=O)n(-c2cccc(N3CCN(C)C3=O)c2)c1)c1cc(N)cc(C(F)(F)F)c1 [Example 89, N-[(1R)-1-[3-amino-5-(trifluoromethyl)phenyl]ethyl]-1-[3-(3-methyl-2-oxo-imidazolidin-1-yl)phenyl]-6-oxo-pyridine-3-carboxamide] | < 1000 nM
Cc1ccc(-n2nc(C(=O)N[C@H](C)c3cc(N)cc(C(F)(F)F)c3)ccc2=O)s1 [Example 22, N-[(1R)-1-[3-amino-5-(trifluoromethyl)phenyl]ethyl]-1-(5-methyl-2-thienyl)-6-oxo-pyridazine-3-carboxamide] | < 1000 nM
C[C@@H](NC(=O)c1ccc(=O)n(-c2ccncc2)n1)c1cc(N)cc(C(F)(F)F)c1 [Example 21, N-[(1R)-1-[3-amino-5-(trifluoromethyl)phenyl]ethyl]-6-oxo-1-(4-pyridyl)pyridazine-3-carboxamide] | < 1000 nM
C[C@@H](NC(=O)c1ccc(=O)n([C@H]2CCCC[C@@H]2O)n1)c1cc(N)cc(C(F)(F)F)c1 [Example 125, N-((R)-1-(3-amino-5-(trifluoromethyl)phenyl)ethyl)-1-((1S,2S)-2-hydroxycyclohexyl)-6-oxo-1,6-dihydropyridazine-3-carboxamide] | 1000 to 10000 nM
C[C@@H](NC(=O)c1ccc(=O)n(-c2ccccc2C#N)n1)c1cc(N)cc(C(F)(F)F)c1 [Example 29, N-[(1R)-1-[3-amino-5-(trifluoromethyl)phenyl]ethyl]-1-(2-cyanophenyl)-6-oxo-pyridazine-3-carboxamide] | < 1000 nM
C[C@@H](NC(=O)c1ccc(=O)n(-c2ccccc2)n1)c1cccc(S(C)(=O)=O)c1 [Example 11, N-[(1R)-1-(3-methylsulfonylphenyl)ethyl]-6-oxo-1-phenyl-pyridazine-3-carboxamide] | 1000 to 10000 nM
C[C@@H](NC(=O)c1ccc(=O)n(-c2cccc(S(C)(=O)=O)c2)n1)c1cc(N)cc(C(F)(F)F)c1 [Example 37, N-[(1R)-1-[3-amino-5-(trifluoromethyl)phenyl]ethyl]-1-(3-methylsulfonylphenyl)-6-oxo-pyridazine-3-carboxamide] | < 1000 nM
C[C@@H](NC(=O)c1ccc(=O)n(-c2cccc(C(=O)N3CCOCC3)c2)c1)c1cc(N)cc(C(F)(F)F)c1 [Example 75, N-[(1R)-1-[3-amino-5-(trifluoromethyl)phenyl]ethyl]-1-[3-(morpholine-4-carbonyl)phenyl]-6-oxo-1,6-dihydropyridine-3-carboxamide] | < 1000 nM
C[C@@H](NC(=O)c1cc(C#N)c(=O)n(-c2ccccc2)n1)c1cc(N)cc(C(F)(F)F)c1 [Example 56, N-[(1R)-1-[3-amino-5-(trifluoromethyl)phenyl]ethyl]-5-cyano-6-oxo-1-phenyl-pyridazine-3-carboxamide] | < 1000 nM
C[C@@H](NC(=O)c1ccc(=O)n(-c2c(F)cccc2F)c1)c1cc(N)cc(C(F)(F)F)c1 [Example 97, N-[(1R)-1-[3-amino-5-(trifluoromethyl)phenyl]ethyl]-1-(2,6-difluorophenyl)-6-oxo-1,6-dihydropyridine-3-carboxamide] | 1000 to 10000 nM
COC1CC=C(n2nc(C(=O)N[C@H](C)c3cc(N)cc(C(F)(F)F)c3)ccc2=O)CC1 (stereo partly drawn) [Example 127, N-[(1R)-1-[3-amino-5-(trifluoromethyl)phenyl]ethyl]-1-(4-methoxycyclohex-1-en-1-yl)-6-oxo-1,6-dihydropyridazine-3-carboxamide] | 1000 to 10000 nM
Cc1cccc([C@@H](C)NC(=O)c2ccc(=O)n(-c3ccccc3)n2)c1 [Example 3, (R)-6-oxo-1-phenyl-N-(1-(m-tolyl)ethyl)-1,6-dihydropyridazine-3-carboxamide] | > 10000 nM
C[C@@H](NC(=O)c1ccc(=O)n(-c2ccccc2)n1)c1cccc2ccccc12 [Example 9, N-[(1R)-1-(1-naphthyl)ethyl]-6-oxo-1-phenyl-pyridazine-3-carboxamide] | 1000 to 10000 nM

These compounds were tested against T2, KRAS^G12C::SOS1 (Homo sapiens, UniProt Q07889) (assay: KRAS G12C::SOS1 protein-protein interaction (PPI) inhibition assay (HTRF binding kit)). Conditions: not given.
T2 sequence (Q07889 1-1333): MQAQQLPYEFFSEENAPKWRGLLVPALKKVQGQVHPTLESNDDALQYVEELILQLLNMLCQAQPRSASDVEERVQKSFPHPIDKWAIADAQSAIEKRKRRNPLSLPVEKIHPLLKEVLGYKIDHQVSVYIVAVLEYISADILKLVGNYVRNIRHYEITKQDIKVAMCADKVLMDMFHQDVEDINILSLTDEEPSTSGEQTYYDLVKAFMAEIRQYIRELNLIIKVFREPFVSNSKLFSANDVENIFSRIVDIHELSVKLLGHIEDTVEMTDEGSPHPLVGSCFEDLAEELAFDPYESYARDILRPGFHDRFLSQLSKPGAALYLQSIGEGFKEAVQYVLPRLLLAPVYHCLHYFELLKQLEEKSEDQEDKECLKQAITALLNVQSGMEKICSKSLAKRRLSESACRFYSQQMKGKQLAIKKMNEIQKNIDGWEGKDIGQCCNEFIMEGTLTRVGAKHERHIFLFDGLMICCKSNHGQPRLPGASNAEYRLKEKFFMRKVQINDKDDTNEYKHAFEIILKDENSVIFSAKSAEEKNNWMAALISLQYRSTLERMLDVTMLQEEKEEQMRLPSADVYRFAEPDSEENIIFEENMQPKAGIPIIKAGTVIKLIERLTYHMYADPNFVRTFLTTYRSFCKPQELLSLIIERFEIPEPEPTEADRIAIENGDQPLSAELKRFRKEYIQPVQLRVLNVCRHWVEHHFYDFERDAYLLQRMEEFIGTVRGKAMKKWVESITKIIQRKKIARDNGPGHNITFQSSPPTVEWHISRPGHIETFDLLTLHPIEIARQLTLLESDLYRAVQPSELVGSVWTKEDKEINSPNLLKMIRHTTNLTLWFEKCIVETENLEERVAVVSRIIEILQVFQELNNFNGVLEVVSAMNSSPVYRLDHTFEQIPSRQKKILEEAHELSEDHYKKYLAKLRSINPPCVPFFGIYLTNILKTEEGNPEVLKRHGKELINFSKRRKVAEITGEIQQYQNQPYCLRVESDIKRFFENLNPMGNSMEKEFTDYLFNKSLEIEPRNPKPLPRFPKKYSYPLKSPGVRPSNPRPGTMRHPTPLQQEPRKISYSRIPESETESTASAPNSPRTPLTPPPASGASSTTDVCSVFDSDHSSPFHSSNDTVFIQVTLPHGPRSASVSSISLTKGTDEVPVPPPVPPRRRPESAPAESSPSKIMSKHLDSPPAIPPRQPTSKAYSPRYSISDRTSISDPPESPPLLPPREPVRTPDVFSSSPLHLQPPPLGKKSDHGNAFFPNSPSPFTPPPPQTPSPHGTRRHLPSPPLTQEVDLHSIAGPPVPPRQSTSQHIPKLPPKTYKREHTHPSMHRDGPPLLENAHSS

SMILES | IC50
C[C@@H](NC(=O)c1ccc(=O)n(-c2cccc3[nH]ccc23)n1)c1cc(N)cc(C(F)(F)F)c1 [Example 160, N-[(1R)-1-[3-amino-5-(trifluoromethyl)phenyl]ethyl]-1-(1H-indol-4-yl)-6-oxo-pyridazine-3-carboxamide] | < 1000 nM
C[C@@H](NC(=O)c1ccc(=O)n(-c2ccccc2OC(F)F)n1)c1cccc(C(F)(F)CO)c1F [Example 143, N-[(1R)-1-[3-(1,1-difluoro-2-hydroxy-ethyl)-2-fluoro-phenyl]ethyl]-1-[2-(difluoromethoxy)phenyl]-6-oxo-pyridazine-3-carboxamide] | < 1000 nM
COc1ccc(-n2nc(C(=O)N[C@H](C)c3cc(N)cc(C(F)(F)F)c3)ccc2=O)c(OC)c1 [Example 153, N-[(1R)-1-[3-amino-5-(trifluoromethyl)phenyl]ethyl]-1-(2,4-dimethoxyphenyl)-6-oxo-pyridazine-3-carboxamide] | < 1000 nM
C[C@@H](NC(=O)c1ccc(=O)n(-c2cncc(-c3cnnn3C)c2)n1)c1cccc(C(F)F)c1F [Example B02, N-[(1R)-1-[3-(difluoromethyl)-2-fluoro-phenyl]ethyl]-1-[5-(3-methyltriazol-4-yl)-3-pyridyl]-6-oxo-pyridazine-3-carboxamide] | < 1000 nM
